Source: US20230232863A1, “FEED COMPOSITION FOR TENEBRIO MOLITOR” (priority 2022, published 2023)

Key:
[1] = system: Tenebrio molitor; test: Mealworm larvae feeding: survival rate; type: in vivo; settings: alloferon peptide of 1 ppm
Protocol: The feeding gelatin was made with combining 200 g of distilled water and 4 g of paper gelatin (Gelita H G, Eberbach, Germany), and solidified in the refrigerator using an ice cubic stick tray with the lid closed. The same process was performed for the experimental group of gelatin containing alloferon peptide (Biomatik, Del., USA) of 1 ppm. The tray had 10 slots to make each gelatin of approximately 20 g gelatin cubic and kept in the refrigerator with the lids closed to minimize loss of moisture.
Yellow mealworms (Tenebrio molitor) were provided by a private local insect breeder (Mealworm village, Seoul, Korea). Mealworms larvae were divided into three different dietary groups: (1) About 500 larvae were placed in a plastic container (18.5×12×5.5 cm) with 30 g wheat bran only (control group), (2) About 500 larvae with wheat bran supplemented with 20 g gelatin three times per week (positive control group), (3) About 500 larvae with wheat bran supplemented with 20 g gelatin containing alloferon peptide of 1 ppm three times per week (experimental group). […]
Mealworms pupae and dead larvae were counted and removed daily from each experimental group, and the numbers were recorded for the evaluation of survival rate. The average weight of the mealworm larvae was recorded every week with 20 randomly selected mealworms.

[2] = system: Tenebrio molitor; test: Mealworm larvae feeding: development time (larvae-pupae transformation); type: in vivo; settings: days until 50% of larvae changed into pupae; laboratory scale; alloferon 1 ppm
Protocol: The feeding gelatin was made with combining 200 g of distilled water and 4 g of paper gelatin (Gelita H G, Eberbach, Germany), and solidified in the refrigerator using an ice cubic stick tray with the lid closed. The same process was performed for the experimental group of gelatin containing alloferon peptide (Biomatik, Del., USA) of 1 ppm. The tray had 10 slots to make each gelatin of approximately 20 g gelatin cubic and kept in the refrigerator with the lids closed to minimize loss of moisture. Yellow mealworms (Tenebrio molitor) were provided by a private local insect breeder (Mealworm village, Seoul, Korea). Mealworms larvae were divided into three different dietary groups: (1) About 500 larvae were placed in a plastic container (18.5×12×5.5 cm) with 30 g wheat bran only (control group), (2) About 500 larvae with wheat bran supplemented with 20 g gelatin three times per week (positive control group), (3) About 500 larvae with wheat bran supplemented with 20 g gelatin containing alloferon peptide of 1 ppm three times per week (experimental group). Two replicated containers per each dietary group were set up, after which the containers were placed in a climate chamber at 25° C. with a relative humidity of 60%. Development time of mealworms was considered to be the number of days until 50% of mealworms larvae changed into pupae stage.

[3] = system: Sf9 insect cells; test: In vitro cell proliferation analysis by PrestoBlue assay; type: cell-based; settings: 300 nM alloferon; measured at 0, 2, 4 and 6 days
Protocol: The proliferation of Sf9 insect cells was analyzed by the PrestoBlue assay (Invitrogen, CA, USA). 8,000 cells/well were prepared in 96 well plates (Sigma-Aldrich, MI, USA). After cells were seeded, the cells were incubated with PBS with alloferon (300 nM). The control group received PBS without aloferon. At 0, 2, 4, and 6 days after applying 10% PrestoBlue, the color switchover of resazurin to resorufin (Absorbance 570 nm/600 nm) was measured with the microplate reader (BioTeck, Vt., USA).

[4] = system: Phenoloxidase; test: Phenoloxidase activity analysis in homogenized larvae tissue; type: in vivo, Tenebrio molitor; settings: after alloferon diet
Protocol: For various analysis of biologic response, harvested mealworms larvae were killed by freezing and then all mealworms stored at −20° C. Penoloxidase activity in homogenized larvae tissue was analyzed with a 96 well microplate reader using catechol as the substrate. After the sample was incubated for 37° C. for 10 min, the 420 nm absorbance was measured with a microplate spectrophotometer (Bio-Rad, CA, USA). The essay was performed with three replicates and each experiment was repeated three times. The penoloxidase activity was expressed as units of enzyme activity per mg protein.

H-His-Gly-Val-Ser-Gly-His-Gly-Gln-His-Gly-Val-His-Gly-OH (H-HGVSGHGQHGVHG-OH) [alloferon, immunomodulatory peptide (Biomatik) first isolated from hemolymph of Calliphora vicina maggots]
increase of survival rate [1]: over 61.8%
development time shortened compared to wheat bran diet control [2]: 40.3%
cell proliferation of Sf9 cells [3]: significantly boosted cell proliferation of Sf9 cells only after 6 days
phenoloxidase expression/activity in mealworm tissue [4]: increasing the expression of penoloxidase
